Reference: patent US5466671A, “Apidaecin-type peptide antibiotics with improved activities and/or different antibacterial spectrum” (priority 1994, dated 1995)
Residues, ends and D or L forms follow the SMILES beside them.

What was measured:
[1] = test system: Escherichia coli (ATCC11775); assay: Inhibition zone assay (agar plate); format: cell-based; conditions: for Inhibition zones: in mm diameter: 50 nanomoles per well (3 mm diameter)
Enterobacter cloacae = assay: Inhibition zone assay (agar plate); format: cell-based; conditions: for Inhibition zones: in mm diameter: 50 nanomoles per well (3 mm diameter)
Klebsiella pneumoniae = assay: Inhibition zone assay (agar plate); format: cell-based; conditions: for Inhibition zones: in mm diameter: 50 nanomoles per well (3 mm diameter)
Salmonella typhimurium = assay: Inhibition zone assay (agar plate); format: cell-based; conditions: for Inhibition zones: in mm diameter: 50 nanomoles per well (3 mm diameter)
Salmonella typhi = format: cell-based; conditions: for Inhibition zones: in mm diameter: 50 nanomoles per well (3 mm diameter)
Shigella dysenteriae = format: cell-based; conditions: for Inhibition zones: in mm diameter: 50 nanomoles per well (3 mm diameter)
[2] = test system: Acinetobacter calcoaceticus; assay: Inhibition zone assay (agar plate); format: cell-based; conditions: 50 nanomoles per well (3 mm diameter)
E. coli D22 = format: cell-based; conditions: 50 nanomoles per well (3 mm diameter)
Erwinia amylovora = assay: Inhibition zone assay (agar plate); format: cell-based; conditions: for Inhibition zones: in mm diameter: 50 nanomoles per well (3 mm diameter)
[3] = test system: Agrobacterium tumefaciens; assay: Inhibition zone assay (agar plate); format: cell-based; conditions: 50 nanomoles per well (3 mm diameter)
Pseudomonas syringae = assay: Inhibition zone assay (agar plate); format: cell-based; conditions: for Inhibition zones: in mm diameter: 50 nanomoles per well (3 mm diameter)
Morganella morganii = assay: Inhibition zone assay (agar plate); format: cell-based; conditions: 50 nanomoles/well, 3 mm wells
Yersinia enterocolitica = assay: Inhibition zone assay (agar plate); format: cell-based; conditions: 50 nanomoles/well, 3 mm wells
Rhizobium meliloti = assay: Inhibition zone assay (agar plate); format: cell-based; conditions: 50 nanomoles/well, 3 mm wells
E. coli Apid^R = assay: Minimal inhibitory concentration (liquid culture); format: cell-based; conditions: a-b = highest concentration with growth - lowest without growth
Excerpt: For details see `Experimental Procedures`.

E. coli 11775 = assay: Minimal inhibitory concentration (liquid culture); conditions: a-b = highest concentration with growth - lowest without growth
E. coli 23802 = assay: Minimal inhibitory concentration (liquid culture); conditions: inoculum 5000 CFU/ml; a-b = highest concentration with growth - lowest without growth
E. coli 25922 = assay: Minimal inhibitory concentration (liquid culture); conditions: inoculum 1100 CFU/ml; a-b = highest concentration with growth - lowest without growth
S. typhimurium = assay: Minimal inhibitory concentration (liquid culture); conditions: inoculum 8 × 10^6 CFU/ml; a-b = highest concentration with growth - lowest without growth
A. calcoaceticus = assay: Minimal inhibitory concentration (liquid culture); conditions: inoculum 16 × 10^6 CFU/ml; a-b = highest concentration with growth - lowest without growth
M. morganii = assay: Minimal inhibitory concentration (liquid culture); conditions: inoculum 400 CFU/ml; a-b = highest concentration with growth - lowest without growth
Y. enterocolitica = assay: Minimal inhibitory concentration (liquid culture); conditions: inoculum 5000 CFU/ml; a-b = highest concentration with growth - lowest without growth
[4] = agar plate, 50 nanomoles/well, 3 mm wells

## QVPIRPSQPRPQPFKPRPQQVPPRTPHPR (QVPIRPSQPRPQPFKPRPQQVPPRTPHPR) [PAB-FT 6-35]
[1]
  Inhibition zones: in mm diameter: 13 mm
Enterobacter cloacae
  Inhibition zones: in mm diameter: 12 mm
Klebsiella pneumoniae
  Inhibition zones: in mm diameter: 11 mm
Salmonella typhimurium
  Inhibition zones: in mm diameter: 8 mm
Salmonella typhi
  Inhibition zones: in mm diameter: 14 mm
Shigella dysenteriae
  Inhibition zones: in mm diameter: 12 mm
[2]
  Inhibition zones: in mm diameter: 10 mm
E. coli D22
  Inhibition zones: in mm diameter: 14 mm

## CC[C@H](C)[C@H](NC(=O)[C@@H]1CCCN1C(=O)[C@@H](NC(=O)[C@H](CCC(N)=O)NC(=O)[C@@H]1CCCN1C(=O)[C@H](CO)NC(=O)[C@@H]1CCCN1C(=O)[C@H](CCCNC(=N)N)NC(=O)[C@@H](N)CO)C(C)C)C(=O)N[C@@H](CCCNC(=N)N)C(=O)N1CCC[C@H]1C(=O)N[C@@H](CO)C(=O)N[C@@H](CCC(N)=O)C(=O)N1CCC[C@H]1C(=O)N[C@@H](CCCNC(=N)N)C(=O)N1CCC[C@H]1C(=O)N[C@@H](CCC(N)=O)C(=O)N1CCC[C@H]1C(=O)NCC(=O)N[C@@H](CCCCN)C(=O)N1CCC[C@H]1C(=O)N[C@@H](CCCNC(=N)N)C(=O)N1CCC[C@H]1C(=O)N[C@@H](CCC(N)=O)C(=O)N[C@@H](CCC(N)=O)C(=O)N[C@H](C(=O)N1CCC[C@H]1C(=O)N1CCC[C@H]1C(=O)N[C@@H](CCCNC(=N)N)C(=O)N1CCC[C@H]1C(=O)N1CCC[C@H]1C(=O)N[C@@H](Cc1c[nH]cn1)C(=O)N1CCC[C@H]1C(=O)N[C@@H](CCCNC(=N)N)C(=O)N[C@@H](CC(C)C)C(=O)O)C(C)C [PAB-GP, SRPSPQVPIRPSQPRPQPGKPRPQQVPPRPPHPRL] (H-SRPSPQVPIRPSQPRPQPGKPRPQQVPPRPPHPRL-OH)
[1]
  Inhibition zones: in mm diameter: 10 mm
Enterobacter cloacae
  Inhibition zones: in mm diameter: 13 mm
Erwinia amylovora
  Inhibition zones: in mm diameter: 5 mm
Klebsiella pneumoniae
  Inhibition zones: in mm diameter: 9 mm
Salmonella typhimurium
  Inhibition zones: in mm diameter: 6 mm
Salmonella typhi
  Inhibition zones: in mm diameter: 13 mm
Shigella dysenteriae
  Inhibition zones: in mm diameter: 11 mm
[2]
  Inhibition zones: in mm diameter: 9 mm
[3]
  Inhibition zones: in mm diameter: 8 mm
Pseudomonas syringae
  Inhibition zones: in mm diameter: 6 mm
E. coli D22
  Inhibition zones: in mm diameter: 14 mm

## SQPRPQPFKPRPQQVPPRTPHPR (SQPRPQPFKPRPQQVPPRTPHPR) [PAB-FT 12-35]
[1]
  Inhibition zones: in mm diameter: 10 mm
Enterobacter cloacae
  Inhibition zones: in mm diameter: 11 mm
Klebsiella pneumoniae
  Inhibition zones: in mm diameter: 6 mm
Salmonella typhi
  Inhibition zones: in mm diameter: 5 mm
Shigella dysenteriae
  Inhibition zones: in mm diameter: 11 mm
E. coli D22
  Inhibition zones: in mm diameter: 10 mm

## CC(C)C[C@H](NC(=O)[C@H](CCCNC(=N)N)NC(=O)[C@@H]1CCCN1C(=O)[C@H](Cc1c[nH]cn1)NC(=O)[C@@H]1CCCN1C(=O)[C@@H]1CCCN1C(=O)[C@H](CCCNC(=N)N)NC(=O)[C@@H]1CCCN1C(=O)[C@@H]1CCCN1C(=O)[C@@H](NC(=O)[C@H](CCC(N)=O)NC(=O)[C@H](CCC(N)=O)NC(=O)[C@@H]1CCCN1C(=O)[C@H](CCCNC(=N)N)NC(=O)[C@@H]1CCCN1C(=O)[C@H](CCCCN)NC(=O)[C@@H](N)Cc1ccccc1)C(C)C)C(=O)O [HoFP, F K P R P Q Q V P P R P P H P R L] (H-FKPRPQQVPPRPPHPRL-OH)
[1]
  Inhibition zones: in mm diameter: 13 mm
Enterobacter cloacae
  Inhibition zones: in mm diameter: 14 mm
Erwinia amylovora
  Inhibition zones: in mm diameter: 11 mm
Klebsiella pneumoniae
  Inhibition zones: in mm diameter: 14 mm
Salmonella typhimurium
  Inhibition zones: in mm diameter: 12 mm
Salmonella typhi
  Inhibition zones: in mm diameter: 13 mm
Shigella dysenteriae
  Inhibition zones: in mm diameter: 18 mm
[3]
  Inhibition zones: in mm diameter: 11 mm
Pseudomonas syringae
  Inhibition zones: in mm diameter: 12 mm
E. coli D22
  Inhibition zones: in mm diameter: 16 mm

## CC[C@H](C)[C@H](NC(=O)[C@@H]1CCCN1C(=O)[C@@H](NC(=O)[C@H](CCC(N)=O)NC(=O)[C@@H]1CCCN1C(=O)[C@H](CO)NC(=O)[C@@H]1CCCN1C(=O)[C@H](CCCNC(=N)N)NC(=O)[C@@H](N)CO)C(C)C)C(=O)N[C@@H](CCCNC(=N)N)C(=O)N1CCC[C@H]1C(=O)N[C@@H](CO)C(=O)N[C@@H](CCC(N)=O)C(=O)N1CCC[C@H]1C(=O)N[C@@H](CCCNC(=N)N)C(=O)N1CCC[C@H]1C(=O)N[C@@H](CCC(N)=O)C(=O)N1CCC[C@H]1C(=O)NCC(=O)N[C@@H](CCCCN)C(=O)N1CCC[C@H]1C(=O)N[C@@H](CCCNC(=N)N)C(=O)N1CCC[C@H]1C(=O)N[C@@H](CCC(N)=O)C(=O)N[C@@H](CCC(N)=O)C(=O)N[C@H](C(=O)N1CCC[C@H]1C(=O)N1CCC[C@H]1C(=O)N[C@@H](CCCNC(=N)N)C(=O)N[C@H](C(=O)N1CCC[C@H]1C(=O)N[C@@H](Cc1c[nH]cn1)C(=O)N1CCC[C@H]1C(=O)N[C@@H](CCCNC(=N)N)C(=O)N[C@@H](CC(C)C)C(=O)O)[C@@H](C)O)C(C)C [PAB-GT, SRPSPQVPIRPSQPRPQPGKPRPQQVPPRTPHPRL] (H-SRPSPQVPIRPSQPRPQPGKPRPQQVPPRTPHPRL-OH)
[1]
  Inhibition zones: in mm diameter: 8 mm
Enterobacter cloacae
  Inhibition zones: in mm diameter: 9 mm
Erwinia amylovora
  Inhibition zones: in mm diameter: 6 mm
Klebsiella pneumoniae
  Inhibition zones: in mm diameter: 8 mm
Salmonella typhimurium
  Inhibition zones: in mm diameter: 6 mm
Salmonella typhi
  Inhibition zones: in mm diameter: 12 mm
Shigella dysenteriae
  Inhibition zones: in mm diameter: 10 mm
[2]
  Inhibition zones: in mm diameter: 8 mm
[3]
  Inhibition zones: in mm diameter: 5 mm
Pseudomonas syringae
  Inhibition zones: in mm diameter: 5 mm
E. coli D22
  Inhibition zones: in mm diameter: 13 mm

## CC(C)C[C@H](NC(=O)[C@H](CCCNC(=N)N)NC(=O)[C@@H]1CCCN1C(=O)[C@H](Cc1c[nH]cn1)NC(=O)[C@@H]1CCCN1C(=O)[C@@H]1CCCN1C(=O)[C@H](CCCNC(=N)N)NC(=O)[C@@H]1CCCN1C(=O)[C@@H]1CCCN1C(=O)[C@@H](NC(=O)[C@H](CCC(N)=O)NC(=O)[C@H](CCC(N)=O)NC(=O)[C@@H]1CCCN1C(=O)[C@@H](N)CCCNC(=N)N)C(C)C)C(=O)O [Ho -, Arg--Pro--Gln--Gln--Val--Pro--Pro--Arg--Pro--Pro--His--Pro--Arg--Leu] (H-RPQQVPPRPPHPRL-OH)
[1]; [4]
  inhibition zone diameter (number of plus signs): +++ ((+++) 10-14 mm)
Enterobacter cloacae; [4]
  inhibition zone diameter (number of plus signs): + ((+) 5-6 mm)
Erwinia amylovora; [4]
  inhibition zone diameter (number of plus signs): ++ ((++) 7-9 mm)
Klebsiella pneumoniae; [4]
  inhibition zone diameter (number of plus signs): + ((+) 5-6 mm)
Morganella morganii
  inhibition zone diameter (number of plus signs): ++ ((++) 7-9 mm)
Salmonella typhimurium; [4]
  inhibition zone diameter (number of plus signs): + ((+) 5-6 mm)
Salmonella typhi; [4]
  inhibition zone diameter (number of plus signs): + ((+) 5-6 mm)
Shigella dysenteriae; [4]
  inhibition zone diameter (number of plus signs): + ((+) 5-6 mm)
Yersinia enterocolitica
  inhibition zone diameter (number of plus signs): ++ ((++) 7-9 mm)
Pseudomonas syringae; [4]
  inhibition zone diameter (number of plus signs): +++ ((+++) 10-14 mm)
Rhizobium meliloti
  inhibition zone diameter (number of plus signs): ++++ ((++++) 15-19 mm)
E. coli Apid^R; inoculum 12 × 10^6 CFU/ml
  minimal inhibitory concentration (MIC): > 40 µg/mL
E. coli Apid^R; inoculum 1000 CFU/ml
  minimal inhibitory concentration (MIC): > 40 µg/mL
E. coli 11775; inoculum 16 × 10^6 CFU/ml
  minimal inhibitory concentration (MIC): 10 to 20 µg/mL
E. coli 11775; inoculum 1200 CFU/ml
  minimal inhibitory concentration (MIC): 0.5 to 1 µg/mL
E. coli 23802
  minimal inhibitory concentration (MIC): > 40 µg/mL
E. coli 25922
  minimal inhibitory concentration (MIC): 10 to 20 µg/mL
S. typhimurium
  minimal inhibitory concentration (MIC): 5 to 10 µg/mL
A. calcoaceticus
  minimal inhibitory concentration (MIC): > 20 µg/mL
M. morganii
  minimal inhibitory concentration (MIC): 10 to 20 µg/mL
Y. enterocolitica
  minimal inhibitory concentration (MIC): 10 to 20 µg/mL

## CC[C@H](C)[C@H](NC(=O)[C@@H]1CCCN1C(=O)[C@@H](NC(=O)[C@H](CCC(N)=O)NC(=O)[C@@H]1CCCN1C(=O)[C@H](CO)NC(=O)[C@@H]1CCCN1C(=O)[C@H](CCCNC(=N)N)NC(=O)[C@@H](N)CO)C(C)C)C(=O)N[C@@H](CCCNC(=N)N)C(=O)N1CCC[C@H]1C(=O)N[C@@H](CO)C(=O)N[C@@H](CCC(N)=O)C(=O)N1CCC[C@H]1C(=O)N[C@@H](CCCNC(=N)N)C(=O)N1CCC[C@H]1C(=O)N[C@@H](CCC(N)=O)C(=O)N1CCC[C@H]1C(=O)N[C@@H](Cc1ccccc1)C(=O)N[C@@H](CCCCN)C(=O)N1CCC[C@H]1C(=O)N[C@@H](CCCNC(=N)N)C(=O)N1CCC[C@H]1C(=O)N[C@@H](CCC(N)=O)C(=O)N[C@@H](CCC(N)=O)C(=O)N[C@H](C(=O)N1CCC[C@H]1C(=O)N1CCC[C@H]1C(=O)N[C@@H](CCCNC(=N)N)C(=O)N1CCC[C@H]1C(=O)N1CCC[C@H]1C(=O)N[C@@H](Cc1c[nH]cn1)C(=O)N1CCC[C@H]1C(=O)N[C@@H](CCCNC(=N)N)C(=O)N[C@@H](CC(C)C)C(=O)O)C(C)C [PAB-FP, SRPSPQVPIRPSQPRPQPFKPRPQQVPPRPPHPRL] (H-SRPSPQVPIRPSQPRPQPFKPRPQQVPPRPPHPRL-OH)
[1]
  Inhibition zones: in mm diameter: 10 mm
Enterobacter cloacae
  Inhibition zones: in mm diameter: 11 mm
Erwinia amylovora
  Inhibition zones: in mm diameter: 5 mm
Klebsiella pneumoniae
  Inhibition zones: in mm diameter: 8 mm
Salmonella typhimurium
  Inhibition zones: in mm diameter: 7 mm
Salmonella typhi
  Inhibition zones: in mm diameter: 13 mm
Shigella dysenteriae
  Inhibition zones: in mm diameter: 12 mm
[2]
  Inhibition zones: in mm diameter: 8 mm
[3]
  Inhibition zones: in mm diameter: 7 mm
E. coli D22
  Inhibition zones: in mm diameter: 14 mm
